Laboratory results published in PMC5418449, “Characterisation of CCT271850, a selective, oral and potent MPS1 inhibitor, used to directly measure in vivo MPS1 inhibition vs therapeutic efficacy” (British Journal of Cancer, 2017).

How the values were obtained:
005A = tested on: 005A; parameters: MTT antiproliferation assay, absorbance at 570 nm, human cancer cell line panel; settings: 3-day MTT; inhibitor; read-out: Table S1. IC50 of CCT271850 determined by MTT and clonogenic assays (CA). / All cell lines were tested at least 2 times. / 3-day MTT
Method: (§1) Cell lines were obtained from the American Type Culture Collection and grown in their recommended culture medium, supplemented with 10% FBS at 37 °C in 5% CO2. In-house authentication of cell lines by SNP profiling was carried out and cultured cells were passaged for less than 6 months before replacement from early-passage frozen stocks. Cells were regularly screened for Mycoplasma, using a PCR-based assay (VenorGem; Minerva Biolabs, Berlin, Germany). Transfections were carried out at ∼80% confluency with the plasmids indicated, using Lipofectamine LTX (15338030, Life Technologies, Carlsbad, CA, USA) according to the manufacturer's instructions. Cell proliferation assays were carried out by colorimetric MTT method (Sigma, St Louis, MO, USA) as described elsewhere ([Mosmann, 1983]). Briefly, cells were plated in 96-well plates at 2000–5000 cells per well (depending on the cell line) followed by treatment with two-fold dilutions of 0–25 μM drug for 72 h. Absorbance was measured at 570 nm with the Wallac VICTOR2 1420 Multilabel Counter (PerkinElmer, Waltham, MA, USA). To evaluate CCT271850 antiproliferation effects in a large panel of human cancer cell lines, 91 cell lines were treated for 72 h and 14 days at different compound concentrations in growth inhibition assays. The growth inhibition values as measured by IC50 are summarised in Table 2 and Supplementary Table S1. […] Cell lines from colon and head and neck cancers were among the most sensitive.

005B = tested on: 005B; parameters: MTT antiproliferation assay, absorbance at 570 nm, human cancer cell line panel; settings: 3-day MTT; inhibitor; read-out: Table S1. IC50 of CCT271850 determined by MTT and clonogenic assays (CA). / All cell lines were tested at least 2 times. / 3-day MTT
Method: as §1

015B = tested on: 015B; parameters: MTT antiproliferation assay, absorbance at 570 nm, human cancer cell line panel; settings: 3-day MTT; inhibitor; read-out: Table S1. IC50 of CCT271850 determined by MTT and clonogenic assays (CA). / All cell lines were tested at least 2 times. / 3-day MTT
Method: as §1

AspC-1 = tested on: AspC-1; parameters: MTT antiproliferation assay, absorbance at 570 nm, human cancer cell line panel; settings: 3-day MTT; inhibitor; read-out: Table S1. IC50 of CCT271850 determined by MTT and clonogenic assays (CA). / All cell lines were tested at least 2 times. / 3-day MTT
Method: as §1

BxPC-3 = tested on: BxPC-3; parameters: MTT antiproliferation assay, absorbance at 570 nm, human cancer cell line panel; settings: 3-day MTT; inhibitor; read-out: Table S1. IC50 of CCT271850 determined by MTT and clonogenic assays (CA). / All cell lines were tested at least 2 times. / 3-day MTT
Method: as §1

CFPAC-1 = tested on: CFPAC-1; parameters: MTT antiproliferation assay, absorbance at 570 nm, human cancer cell line panel; settings: 3-day MTT; inhibitor; read-out: Table S1. IC50 of CCT271850 determined by MTT and clonogenic assays (CA). / All cell lines were tested at least 2 times. / 3-day MTT
Method: as §1

EF021 = tested on: EF021; parameters: MTT antiproliferation assay, absorbance at 570 nm, human cancer cell line panel; settings: 3-day MTT; inhibitor; read-out: Table S1. IC50 of CCT271850 determined by MTT and clonogenic assays (CA). / All cell lines were tested at least 2 times. / 3-day MTT
Method: as §1

HN15 = tested on: HN15; parameters: MTT antiproliferation assay, absorbance at 570 nm, human cancer cell line panel; settings: 3-day MTT; inhibitor; read-out: Table S1. IC50 of CCT271850 determined by MTT and clonogenic assays (CA). / All cell lines were tested at least 2 times. / 3-day MTT
Method: as §1

HN6 = tested on: HN6; parameters: MTT antiproliferation assay, absorbance at 570 nm, human cancer cell line panel; settings: 3-day MTT; inhibitor; read-out: Table S1. IC50 of CCT271850 determined by MTT and clonogenic assays (CA). / All cell lines were tested at least 2 times. / 3-day MTT
Method: as §1

IGROV1 = tested on: IGROV1; parameters: MTT antiproliferation assay, absorbance at 570 nm, human cancer cell line panel; settings: 3-day MTT; inhibitor; read-out: Table S1. IC50 of CCT271850 determined by MTT and clonogenic assays (CA). / All cell lines were tested at least 2 times. / 3-day MTT
Method: as §1

Kuramochi = tested on: Kuramochi; parameters: MTT antiproliferation assay, absorbance at 570 nm, human cancer cell line panel; settings: 3-day MTT; inhibitor; read-out: Table S1. IC50 of CCT271850 determined by MTT and clonogenic assays (CA). / All cell lines were tested at least 2 times. / 3-day MTT
Method: as §1

OAW42 = tested on: OAW42; parameters: MTT antiproliferation assay, absorbance at 570 nm, human cancer cell line panel; settings: 3-day MTT; inhibitor; read-out: Table S1. IC50 of CCT271850 determined by MTT and clonogenic assays (CA). / All cell lines were tested at least 2 times. / 3-day MTT
Method: as §1

OVCAR3 = tested on: OVCAR3; parameters: MTT antiproliferation assay, absorbance at 570 nm, human cancer cell line panel; settings: 3-day MTT; inhibitor; read-out: Table S1. IC50 of CCT271850 determined by MTT and clonogenic assays (CA). / All cell lines were tested at least 2 times. / 3-day MTT
Method: as §1

OVCAR8 = tested on: OVCAR8; parameters: MTT antiproliferation assay, absorbance at 570 nm, human cancer cell line panel; settings: 3-day MTT; inhibitor; read-out: Table S1. IC50 of CCT271850 determined by MTT and clonogenic assays (CA). / All cell lines were tested at least 2 times. / 3-day MTT
Method: as §1

PA-1 = tested on: PA-1; parameters: MTT antiproliferation assay, absorbance at 570 nm, human cancer cell line panel; settings: 3-day MTT; inhibitor; read-out: Table S1. IC50 of CCT271850 determined by MTT and clonogenic assays (CA). / All cell lines were tested at least 2 times. / 3-day MTT
Method: as §1

PATU-8902 = tested on: PATU-8902; parameters: MTT antiproliferation assay, absorbance at 570 nm, human cancer cell line panel; settings: 3-day MTT; inhibitor; read-out: Table S1. IC50 of CCT271850 determined by MTT and clonogenic assays (CA). / All cell lines were tested at least 2 times. / 3-day MTT
Method: as §1

PATU-8988S = tested on: PATU-8988S; parameters: MTT antiproliferation assay, absorbance at 570 nm, human cancer cell line panel; settings: 3-day MTT; inhibitor; read-out: Table S1. IC50 of CCT271850 determined by MTT and clonogenic assays (CA). / All cell lines were tested at least 2 times. / 3-day MTT
Method: as §1

PATU-8988T = tested on: PATU-8988T; parameters: MTT antiproliferation assay, absorbance at 570 nm, human cancer cell line panel; settings: 3-day MTT; inhibitor; read-out: Table S1. IC50 of CCT271850 determined by MTT and clonogenic assays (CA). / All cell lines were tested at least 2 times. / 3-day MTT
Method: as §1

PJ41 = tested on: PJ41; parameters: MTT antiproliferation assay, absorbance at 570 nm, human cancer cell line panel; settings: 3-day MTT; inhibitor; read-out: Table S1. IC50 of CCT271850 determined by MTT and clonogenic assays (CA). / All cell lines were tested at least 2 times. / 3-day MTT
Method: as §1

SKOV3 = tested on: SKOV3; parameters: MTT antiproliferation assay, absorbance at 570 nm, human cancer cell line panel; settings: 3-day MTT; inhibitor; read-out: Table S1. IC50 of CCT271850 determined by MTT and clonogenic assays (CA). / All cell lines were tested at least 2 times. / 3-day MTT
Method: as §1

SMOV2 = tested on: SMOV2; parameters: MTT antiproliferation assay, absorbance at 570 nm, human cancer cell line panel; settings: 3-day MTT; inhibitor; read-out: Table S1. IC50 of CCT271850 determined by MTT and clonogenic assays (CA). / All cell lines were tested at least 2 times. / 3-day MTT
Method: as §1

Suit-2 = tested on: Suit-2; parameters: MTT antiproliferation assay, absorbance at 570 nm, human cancer cell line panel; settings: 3-day MTT; inhibitor; read-out: Table S1. IC50 of CCT271850 determined by MTT and clonogenic assays (CA). / All cell lines were tested at least 2 times. / 3-day MTT
Method: as §1

TOV21G = tested on: TOV21G; parameters: MTT antiproliferation assay, absorbance at 570 nm, human cancer cell line panel; settings: 3-day MTT; inhibitor; read-out: Table S1. IC50 of CCT271850 determined by MTT and clonogenic assays (CA). / All cell lines were tested at least 2 times. / 3-day MTT
Method: as §1

OVCAR5 = tested on: OVCAR5; parameters: 14-day clonogenic growth inhibition assay, human cancer cell line panel; settings: 14-day clonogenic assay; inhibitor; read-out: Table S1. IC50 of CCT271850 determined by MTT and clonogenic assays (CA). / All cell lines were tested at least 2 times. / 14-day CA
Method: (§2) To evaluate CCT271850 antiproliferation effects in a large panel of human cancer cell lines, 91 cell lines were treated for 72 h and 14 days at different compound concentrations in growth inhibition assays. The growth inhibition values as measured by IC50 are summarised in Table 2 and Supplementary Table S1. […] Cell lines from colon and head and neck cancers were among the most sensitive.

SW626 = tested on: SW626; parameters: 14-day clonogenic growth inhibition assay, human cancer cell line panel; settings: 14-day clonogenic assay; inhibitor; read-out: Table S1. IC50 of CCT271850 determined by MTT and clonogenic assays (CA). / All cell lines were tested at least 2 times. / 14-day CA
Method: as §2

## COc1cc(-c2cnn(C)c2)ccc1Nc1ncc2ccnc(N[C@@H](C)C(C)(C)C)c2n1 [34h, CCT271850]
005A
  IC50: 940 nM
005B
  IC50: 440 nM
015B
  IC50: 350 nM
AspC-1
  IC50: 2400 nM
BxPC-3
  IC50: 525 nM
CFPAC-1
  IC50: 910 nM
EF021
  IC50: 751 nM
HN15
  IC50: 1740 nM
HN6
  IC50: 330 nM
IGROV1
  IC50: 3.59 µM
Kuramochi
  IC50: 4.86 µM
OAW42
  IC50: 880 nM
OVCAR3
  IC50: > 100 µM
OVCAR8
  IC50: 1230 nM
PA-1
  IC50: 2250 nM
PATU-8902
  IC50: 510 nM
PATU-8988S
  IC50: 2020 nM
PATU-8988T
  IC50: 665 nM
PJ41
  IC50: 520 nM
SKOV3
  IC50: > 100 µM
SMOV2
  IC50: 795 nM
Suit-2
  IC50: 435 nM
TOV21G
  IC50: 753 nM
OVCAR5
  IC50: 82 nM
SW626
  IC50: 32 nM
